# Results as given in patent US20180014536A1, “AGENT FOR IMPROVING PLANT GROWTH AND METHOD FOR PRODUCING PLANT USING SAME” (FUSO CHEMICAL CO., LTD., priority 2015, published 2018).
# Values joined by “and” are separate entries in the source; they are usually repeats but may differ in a detail not shown here. Identical values can stand only once. “Also recorded” adds a separate entry of the source.
# Tests used:
# [1] = tested on: Japanese mustard spinach; assay: Verification experiment 1: high temperature stress, hydroponics (first time); format: in vivo; settings: for effect as agent compared with zerumbone: high temperature stress, hydroponics
# Description: In order to confirm that the above substances have an efficacy such as alleviation of the various stresses on a plant or promotion of plant growth, some verification experiments were conducted. In each of the verification experiments, solutions of the above substances were used. A concentration thereof was in a range from 0.01 ppm to 10 ppm, in order to exert a sufficient efficacy on a plant. This concentration was appropriately adjusted for each verification experiment. For comparison, similar verification experiments using sanguinarine were conducted. In such a verification experiment for an identical purpose to the above, a concentration of sanguinarine was set to be identical to those of the above substances. A verification experiment for high temperature stress was conducted by use of Japanese mustard spinach. The experiment was conducted in the following procedures. […] Note that the agent used was zerumbone.
# [2] = tested on: Japanese mustard spinach; assay: Verification experiment 2: high temperature and low sunshine stress, hydroponics (second time-B)
# [3] = tested on: Japanese mustard spinach; assay: Verification experiment 2: high temperature stress, hydroponics, plenty of sunlight (second time-A)
# [4] = tested on: cucumber; assay: Verification experiment 6: dry stress; format: in vivo; settings: for Weight of each seedling: 3 ml agent added immediately after germination, 18 days cultivation, soil surface kept dry, samples No. 1-9; for Average: average seedling weight after 18 days dry stress; for Weight comparison (%): control = 100.0
# Description: By use of cucumber, a resistance to dry stress was investigated. 3 ml of Zerumbone was added to cucumber seedlings immediately after germination. The cucumber seedlings were cultivated for 18 days. Meanwhile, another cucumber seedlings were cultivated for 18 days without Zerumbone added thereto. Throughout the cultivation period, a minimum amount of water was given and watering was conducted a minimum number of times so that the soil surface was always kept dry. […] A weight of each of the seedlings was measured. […] Note that, except for the agent, the cultivation conditions used were identical to those of the case where zerumbone was used.
# [5] = tested on: cucumber; assay: Verification experiment 8: low temperature stress, TTC test; format: in vivo; settings: for TTC test dyeing of leaves (cell activity): remaining plants cultivated two days under fluorescent lamp at 4° C.
# [6] = tested on: cucumber; assay: Verification experiment 9: organic acid stress, TTC test; format: in vivo; settings: cut leaves immersed in 0.4% acetic acid solution for two hours
# [7] = tested on: cucumber; assay: Verification experiment 10: ammonia stress, TTC test; format: in vivo; settings: cut leaves immersed in 1.0% ammonia solution for three hours
# [8] = tested on: cucumber; assay: Verification experiment 11: ultraviolet ray stress, TTC test; format: in vivo; settings: cut leaves irradiated with ultraviolet ray for 24 hours
# [9] = tested on: cucumber; assay: Verification experiment 12: salt stress, TTC test; format: in vivo; settings: cut leaves immersed in 1.0% saline water for 24 hours
# [10] = tested on: leaf lettuce; assay: Verification experiment 13: hydroponics test on leaf lettuce in vinyl greenhouse in summer; format: in vivo
# [11] = tested on: autumn fern; assay: Verification experiment 14: high temperature stress, Pteridophyta, TTC test; format: in vivo; settings: cut leaves immersed in tap water of 45° C. for 18 hours
# Description: As a Pteridophyta, autumn fern was used, which is a representative Pteridophyta often found in, […] bright forest. Verification experiments for various stresses were conducted thereon. The experiments were conducted in the following procedures. […] Meanwhile, the leaf surfaces of the control sample were sprayed only with water. After the spraying onto the leaf surfaces, the autumn fern seedlings were cultivated at 25° C. for one day. The leaves were cut in a suitable size, and were then subjected to various stresses. Then, cell activities of the samples were determined by TTC test. The leaves that were cut in the suitable size were immersed in tap water of 45° C. for 18 hours. On such leaves, TTC test was conducted.
# [12] = tested on: autumn fern; assay: Verification experiment 15: organic acid stress, Pteridophyta, TTC test; format: in vivo; settings: cut leaves immersed in 0.4% acetic acid solution for three hours
# [13] = tested on: autumn fern; assay: Verification experiment 16: ammonia stress, Pteridophyta, TTC test; format: in vivo; settings: cut leaves immersed in 1.0% ammonia solution for 48 hours
# [14] = tested on: racomitrium moss; assay: Verification experiment 17: high temperature stress, Bryophyta, TTC test; format: in vivo; settings: samples immersed in tap water of 45° C. for 18 hours
# Description: As a Bryophyta, racomitrium moss was used, which is a Bryophyta widely used for greening a park, a rooftop, and a garden. Verification experiments for various stresses were conducted thereon. The experiments were conducted in the following procedures. […] Meanwhile, the control sample was sprayed only with water. After the spraying, the racomitrium mosses were cultivated at 25° C. for one day. Then, the samples were subjected to various stresses. Thus, cell activities of the samples were determined by TTC test. […] On such samples, TTC test was conducted.
# [15] = tested on: racomitrium moss; assay: Verification experiment 18: organic acid stress, Bryophyta, TTC test; format: in vivo; settings: samples immersed in 0.4% acetic acid solution for three hours
# [16] = tested on: racomitrium moss; assay: Verification experiment 19: ammonia stress, Bryophyta, TTC test; format: in vivo; settings: samples immersed in 1.0% ammonia solution for 48 hours
# [17] = cut leaves left two days in dark place at 0° C.
# [18] = cut leaves left two days in dark place at −10° C.
# [19] = leaf lettuce, summer greenhouse hydroponics
SMILES,effect as agent compared with zerumbone [1],Weight of each seedling [4],Average [4] [g],Weight comparison (%) [4] [%],"TTC test dyeing (cell activity) [5, 17]","TTC test dyeing (cell activity) [5, 18]",TTC test dyeing of leaves (cell activity) [5],cells having an activity (TTC test) [6],cells having an activity (TTC test) [7],cells having an activity (TTC test) [8],cells alive (TTC test) [9],TTC test dyeing (cell activity) [11],TTC test dyeing (cell activity) [12],TTC test dyeing (cell activity) [13],TTC test dyeing (cell activity) [14],TTC test dyeing (cell activity) [15],TTC test dyeing (cell activity) [16],other results
"C[n+]1cc2c3c(ccc2c2ccc4cc5c(cc4c21)OCO5)OCO3 [Sanguinarine, sanguinarine, reference compound]",,,,,,,,,,,,,,,,,,"Average ([1]; average weight of 10 samples, first time): 1.574 g; weights greater than those of the control samples ([1]; average weights compared, first time): approximately 3%; Growth ratio (%) ([1]; control = 100.0, first time): 103.2%; Weight of 10 samples ([1]; dry weight of 10 seedlings, leaf spray, nine days culture, maximum temperature 30-43 °C, plenty of sunlight, first time): 1.554 g and 1.538 g and 1.594 g and 1.610 g; growth better than the growth of the control samples ([2]; Table 3 experiment, almost no sunlight): approximately 17%; Growth ratio (%) ([2]; control = 100.0, second time-B): 116.7%; Weight of 10 samples ([2]; dry weight of 10 seedlings, nine days, 30-43 °C, almost no sunlight, second time-B): 1.802 g and 1.873 g; Average ([2]; second time-B): 1.838 g; weights greater than those of the control samples ([3]; Table 2 experiment): approximately 11%; Growth ratio (%) ([3]; control = 100.0, second time-A): 110.7%; Weight of 10 samples ([3]; dry weight of 10 seedlings, nine days, 30-43 °C, plenty of sunlight, second time-A): 1.996 g and 2.027 g and 2.156 g and 2.179 g; Average ([3]; second time-A): 2.090 g"
C/C1=C\CC/C(C)=C/CC(C)(C)/C=C/C1 [α-humulene],effects almost similar to that of zerumbone,2.69 g and 2.99 g and 3.21 g and 3.07 g and 3.02 g and 2.76 g and 2.65 g and 3.03 g,2.90,108.5,dyed deeply,dyed slightly,dyed deeply except for their peripheries,approximately half of the cells,a part of the cells,approximately half of the cells,most of the cells,dyed slightly,dyed slightly,dyed slightly,dyed slightly,dyed slightly,dyed slightly,Disease resistance: Powdery mildew ([10]; in vivo): Not occurred; Disease resistance: Root rot ([10]; in vivo): Not occurred; Physiological disorder (quality): Heterophyll ([10]; in vivo): Not occurred; Physiological disorder (quality): Root spread condition ([10]; in vivo): far better than in the sanguinarine test section; also recorded: Generally; Physiological disorder (quality): Taste ([10]; in vivo): No bitterness; Physiological disorder (quality): Tip burn (dead fringes of leaf) ([10]; in vivo): Not occurred; Physiological disorder (quality): Unproductive growth ([10]; in vivo): Not occurred; occurrence of a disease (overall) ([10]; in vivo): occurrence of a disease was not observed; physiological disorder (overall) ([10]; in vivo): no physiological disorder occurred
C=C1CC/C=C(\C)CC[C@@H]2[C@@H]1CC2(C)C [β-caryophyllene],effects almost similar to that of zerumbone,2.89 g and 3.15 g and 3.01 g and 3.13 g and 2.91 g and 3.53 g and 3.11 g and 3.02 g,3.10,108.8,dyed deeply,dyed slightly,dyed deeply except for their peripheries,approximately half of the cells,a part of the cells,approximately half of the cells,most of the cells,dyed slightly,dyed slightly,dyed slightly,dyed slightly,dyed slightly,dyed slightly,"Growing speed: Harvest timing ([10]; day on which harvest size reached 150 g to 180 g): 33rd day after day after germination; Disease resistance: Powdery mildew [10, 19]: Not occurred; Disease resistance: Root rot [10, 19]: Not occurred; Physiological disorder (quality): Heterophyll [10, 19]: Not occurred; Physiological disorder (quality): Root spread condition [10, 19]: far better than in the sanguinarine test section; also recorded: Very good; Physiological disorder (quality): Taste [10, 19]: No bitterness; Physiological disorder (quality): Tip burn (dead fringes of leaf) [10, 19]: Not occurred; Physiological disorder (quality): Unproductive growth [10, 19]: Not occurred; occurrence of a disease (overall) [10, 19]: occurrence of a disease was not observed; physiological disorder (overall) [10, 19]: no physiological disorder occurred"
